# ChEMBL document CHEMBL5346964, “Discovery of LNP1892: A Precision Calcimimetic for the Treatment of Secondary Hyperparathyroidism” (J Med Chem, 2023)
# Key:
# Rattus norvegicus [1] = experiment: Chronic effect on parathyroid hormone in overnight fasted adenine diet-induced chronic kidney disease Wistar rat model plasma assessed as reduction in plasma PTH level at 1 mg/kg, po qd measured after 27 days of post treatment by sandwich ELISA analysis; format: functional; design: scale not given: the % may be the effect or the level left; conditions: time 27 day
# [2] = Effect on parathyroid hormone in overnight fasted Sprague-Dawley rat assessed as reduction in plasma PTH level at 3 mg/kg, po measured after 2 hrs of post treatment by sandwich ELISA analysis; format: functional; design: scale not given: the % may be the effect or the level left
# [3] = Chemical stability of the compound in 0.1N HCL measured after 0.5 to 4 hrs; format: physicochemical; conditions: buffer; time 0.5-4 hrs
# [4] = Cmax in Sprague-Dawley rat at 300 mg/kg; format: ADME, organism-based; design: dose 300 mg/kg; conditions: in vivo
# [5] = Drug excretion in rat assessed as drug recovery in urine at 1 mg/kg, iv; format: ADME, organism-based; conditions: read-out: Drug recovery
# [6] = Clearance in Sprague-Dawley rat at 1 mg/kg, iv measured upto 24 hrs by LC-MS/MS analysis; format: ADME, organism-based; conditions: in vivo
# [7] = Apparent permeability across basolateral to apical side in human Caco-2 cells at 5 uM measured after 30 to 120 mins by LC-MS/MS analysis; format: ADME, cell-based; conditions: time 30-120 min
# [8] = Kinetic solubility of compound in SIF upto 500 uM measured after 16 hrs under shaking condition by UV-visible method; format: physicochemical; conditions: read-out: Kinetic_solubility
# CYP2D6 = CYP2D6 (Homo sapiens, UniProt P10635); experiment: Inhibition of CYP2D6 in human liver microsomes at 10 uM preincubated for 5 mins followed by NADPH addition by LC-MS/MS analysis relative to control; format: ADME, Microsome
# CYP2D6, sequence (P10635 whole entry): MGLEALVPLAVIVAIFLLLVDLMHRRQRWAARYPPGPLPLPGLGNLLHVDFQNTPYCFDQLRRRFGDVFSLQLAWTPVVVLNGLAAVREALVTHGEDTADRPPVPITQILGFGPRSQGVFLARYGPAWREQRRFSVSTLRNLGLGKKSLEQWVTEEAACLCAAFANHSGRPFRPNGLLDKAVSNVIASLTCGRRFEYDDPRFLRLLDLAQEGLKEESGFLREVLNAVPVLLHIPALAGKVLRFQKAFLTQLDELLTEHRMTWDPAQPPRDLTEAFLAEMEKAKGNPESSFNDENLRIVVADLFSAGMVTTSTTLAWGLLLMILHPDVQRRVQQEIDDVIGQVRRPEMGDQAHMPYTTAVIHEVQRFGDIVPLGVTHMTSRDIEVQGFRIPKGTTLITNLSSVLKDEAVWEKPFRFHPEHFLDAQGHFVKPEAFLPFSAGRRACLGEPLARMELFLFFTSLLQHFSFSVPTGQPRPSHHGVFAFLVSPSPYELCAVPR
# [9] = AUC(0 to t) in rat at 50 mg/kg per day, po via gavage administered for 2 weeks; format: ADME, organism-based; design: dose 50 mg/kg, time 2 weeks, route po; conditions: in vivo
# [10] = Drug excretion in rat assessed as drug recovery in feces at 10 mg/kg, po; format: ADME, organism-based; conditions: faeces, read-out: Drug recovery
# [11] = AUC(0 to 24 hrs) in Sprague-Dawley rat at 10 mg/kg; format: ADME, organism-based; design: dose 10 mg/kg; conditions: in vivo
# [12] = Protein binding in rat plasma incubated for 16 hrs under shaking condition by rapid equilibrium dialysis based LC-MS/MS method; format: ADME, cell-free; conditions: read-out: PPB
# Rattus norvegicus [13] = experiment: Acute effect on parathyroid hormone in overnight fasted adenine diet-induced chronic kidney disease Wistar rat model assessed as reduction in plasma PTH level at 3 mg/kg, po measured after 4 hrs of post treatment by sandwich ELISA analysis; format: functional; design: scale not given: the % may be the effect or the level left
# [14] = Drug excretion in rat assessed as drug recovery in feces at 1 mg/kg, iv; format: ADME, organism-based; conditions: faeces, read-out: Drug recovery
# CYP1A2 = target: T1, CYP1A2 (Homo sapiens, UniProt P05177); experiment: Inhibition of CYP1A2 in human liver microsomes at 10 uM preincubated for 5 mins followed by NADPH addition by LC-MS/MS analysis relative to control; format: ADME, Microsome
# T1 sequence (P05177 whole entry): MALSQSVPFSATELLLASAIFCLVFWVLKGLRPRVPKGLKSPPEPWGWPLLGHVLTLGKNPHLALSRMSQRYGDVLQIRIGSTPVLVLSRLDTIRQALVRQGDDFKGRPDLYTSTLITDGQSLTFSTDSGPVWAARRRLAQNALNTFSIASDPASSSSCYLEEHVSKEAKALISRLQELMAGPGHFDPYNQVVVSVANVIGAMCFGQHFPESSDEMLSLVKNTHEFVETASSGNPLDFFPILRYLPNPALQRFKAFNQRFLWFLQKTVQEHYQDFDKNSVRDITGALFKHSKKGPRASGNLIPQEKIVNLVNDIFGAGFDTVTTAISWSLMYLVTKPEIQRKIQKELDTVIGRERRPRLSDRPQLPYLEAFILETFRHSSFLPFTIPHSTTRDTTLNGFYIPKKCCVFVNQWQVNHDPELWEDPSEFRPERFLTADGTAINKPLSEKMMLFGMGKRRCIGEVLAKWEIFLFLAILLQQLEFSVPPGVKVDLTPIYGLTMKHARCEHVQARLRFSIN
# [15] = Metabolic stability in human liver cytosol measured upto 60 mins by LC-MS/MS method; format: ADME, subcellular; conditions: read-out: Stability
# [16] = Effect on parathyroid hormone in overnight fasted Sprague-Dawley rat assessed as reduction in plasma PTH level at 10 mg/kg, po measured after 2 hrs of post treatment by sandwich ELISA analysis; format: functional; design: scale not given: the % may be the effect or the level left
# [17] = Plasma clearance in Sprague-Dawley rat at 1 mg/kg, iv measured upto 24 hrs by LC/MS-MS analysis; format: ADME, organism-based
# CYP2E1 = CYP2E1 (Homo sapiens, UniProt P05181); experiment: Inhibition of CYP2E1 in human liver microsomes at 10 uM preincubated for 5 mins followed by NADPH addition by LC-MS/MS analysis relative to control; format: ADME, Microsome
# CYP2E1, sequence (P05181 whole entry): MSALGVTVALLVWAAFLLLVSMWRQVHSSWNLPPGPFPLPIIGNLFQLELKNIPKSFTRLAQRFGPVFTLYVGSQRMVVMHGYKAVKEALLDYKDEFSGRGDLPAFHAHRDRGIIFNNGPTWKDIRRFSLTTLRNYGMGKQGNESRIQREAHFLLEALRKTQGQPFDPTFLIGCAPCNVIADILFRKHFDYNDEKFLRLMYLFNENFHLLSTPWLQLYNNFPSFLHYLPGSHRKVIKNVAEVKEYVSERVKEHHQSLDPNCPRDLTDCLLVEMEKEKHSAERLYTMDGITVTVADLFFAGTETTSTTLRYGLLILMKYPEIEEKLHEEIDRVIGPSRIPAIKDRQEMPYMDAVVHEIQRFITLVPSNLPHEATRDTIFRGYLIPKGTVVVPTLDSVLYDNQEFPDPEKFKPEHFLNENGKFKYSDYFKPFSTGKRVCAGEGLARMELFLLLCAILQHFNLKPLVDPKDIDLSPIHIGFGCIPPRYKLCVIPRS
# [18] = Half life in cynomolgus monkey at 1 mg/kg, iv measured upto 24 hrs by LC/MS-MS analysis; format: ADME, organism-based, Macaca fascicularis; conditions: in vivo
# [19] = Drug excretion in BALB/c mouse assessed as drug recovery in feces at 1 mg/kg, iv; format: ADME, organism-based; conditions: faeces, read-out: Drug recovery
# [20] = Oral bioavailability in Sprague-Dawley rat at 10 mg/kg administered as suspension measured upto 24 hrs by LC-MS/MS analysis; format: ADME, organism-based; conditions: in vivo
# [21] = Kinetic solubility of compound upto 500 uM at pH 9 measured after 16 hrs under shaking condition by UV-visible method; format: physicochemical; conditions: buffer, read-out: Kinetic_solubility
# Rattus norvegicus [22] = experiment: Acute effect on parathyroid hormone in overnight fasted adenine diet-induced chronic kidney disease Wistar rat model assessed as reduction in plasma PTH level at 3 mg/kg, po measured after 1 hrs of post treatment by sandwich ELISA analysis; format: functional; design: scale not given: the % may be the effect or the level left
# [23] = Chemical stability of the compound in SGF measured after 0.5 to 4 hrs; format: physicochemical; conditions: simulated gi fluid; time 0.5-4 hrs
# [24] = Effect on parathyroid hormone in overnight fasted Sprague-Dawley rat assessed as reduction in plasma PTH level at 10 mg/kg, po measured after 6 hrs of post treatment by sandwich ELISA analysis (reference value: 33%); format: functional; design: scale not given: the % may be the effect or the level left
# [25] = AUC in Beagle dog at 5 mg/kg, po measured upto 24 hrs by LC/MS-MS analysis; format: ADME, organism-based, Canis lupus familiaris; design: dose 5 mg/kg, time < 24 hrs, route po; conditions: in vivo
# [26] = AUC in BALB/c mouse at 10 mg/kg, po measured upto 24 hrs by LC/MS-MS analysis; format: ADME, organism-based; design: time < 24 hrs, dose 10 mg/kg, route po; conditions: in vivo
# [27] = Half life in Beagle dog at 1 mg/kg, iv measured upto 24 hrs by LC/MS-MS analysis; format: ADME, organism-based, Canis lupus familiaris; conditions: in vivo
# [28] = Drug excretion in BALB/c mouse assessed as drug recovery in urine at 1 mg/kg, iv; format: ADME, organism-based; conditions: read-out: Drug recovery
smiles,measurement,setting,value
Cc1ccc([C@@H]2C[C@H](CN[C@H](C)c3cccc4ccccc34)Oc3ccccc32)cc1C(=O)O.Cl,Activity,Rattus norvegicus [1],65%
same,Activity,[2],100%
same,Stability,[3],Stable
same,Cmax,[4],72 µM
same,dose excreted,[5],< 1%
same,clearance,[6],4 mL/min/kg
same,Papp B→A at 5 µM,[7],6.3 ×10⁻⁶ cm/s
same,"solubility kinetic at 16 h, 500 µM",[8],> 300 µM
same,inhibition at 10 µM,CYP2D6,0%
same,AUC(0-t) at 336 h,[9],108 µg·h/mL
same,dose excreted,[10],3%
same,AUC(0-t),[11],23 µM·h
same,fraction unbound at 16 h,[12],< 0.01
same,Activity,Rattus norvegicus [13],89%
same,dose excreted,[14],10%
same,inhibition at 10 µM,CYP1A2,0%
same,remaining at 1 h,[15],> 80%
same,Activity,[16],99%
same,clearance,[17],4 mL/min/kg
same,inhibition at 10 µM,CYP2E1,0%
same,half-life,[18],5 h
same,dose excreted,[19],27%
same,bioavailability,[20],33%
same,"solubility kinetic at 16 h, 500 µM",[21],> 200 µM
same,Activity,Rattus norvegicus [22],96%
same,Stability,[23],Stable
same,Activity,[24],45%
same,AUC at 24 h,[25],63 µM·h
same,AUC at 24 h,[26],171 µM·h
same,half-life,[27],5 h
same,dose excreted,[28],< 1%
